target: T1, Gastrin/cholecystokinin type B receptor (Mus musculus, UniProt P56481); experiment: Cholecystokinin type B receptor binding assay performed on homogenized cerebral cortex from male mouse; assay type: tissue-based
T1 sequence (P56481 whole entry): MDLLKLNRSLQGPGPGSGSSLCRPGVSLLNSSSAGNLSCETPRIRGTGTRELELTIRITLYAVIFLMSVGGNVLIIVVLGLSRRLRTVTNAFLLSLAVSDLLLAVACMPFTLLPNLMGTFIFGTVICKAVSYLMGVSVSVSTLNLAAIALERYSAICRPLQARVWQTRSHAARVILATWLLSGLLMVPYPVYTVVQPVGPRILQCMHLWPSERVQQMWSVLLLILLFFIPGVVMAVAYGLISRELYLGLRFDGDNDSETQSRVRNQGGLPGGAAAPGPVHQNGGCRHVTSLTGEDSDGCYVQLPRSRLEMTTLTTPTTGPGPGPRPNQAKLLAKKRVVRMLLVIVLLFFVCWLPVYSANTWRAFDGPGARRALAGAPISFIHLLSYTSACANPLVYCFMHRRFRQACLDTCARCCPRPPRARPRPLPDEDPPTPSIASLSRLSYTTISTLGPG

Ki [nM] | SMILES
8.91 | C[C@@H]1CCCC[C@H]1OC(=O)N[C@](C)(Cc1c[nH]c2ccccc12)C(=O)N[C@H](CO)Cc1ccccc1 (stereo in doubt; 28)
12.3 | C[C@@H]1CCCC[C@H]1OC(=O)N[C@](C)(Cc1c[nH]c2ccccc12)C(=O)N[C@H](CNC(=O)CCC(=O)O)Cc1ccccc1
0.513 | C[C@](Cc1c[nH]c2ccccc12)(NC(=O)OC1C2CC3CC(C2)CC1C3)C(=O)NC[C@H](NC(=O)/C=C/C(=O)O)c1ccccc1 (some centres not stated)
3.89 | C[C@@H]1CCCC[C@H]1OC(=O)N[C@](C)(Cc1c[nH]c2ccccc12)C(=O)NC[C@H](NC(=O)/C=C/C(=O)O)c1ccccc1
6.03 | C[C@](Cc1c[nH]c2ccccc12)(NC(=O)OC1C2CC3CC(C2)CC1C3)C(=O)N[C@H](CO)Cc1ccccc1 (some centres not stated)
93.3 | O=C(O)C[C@@H](Cc1ccccc1)NC(=O)[C@H](Cc1c[nH]c2ccccc12)NC(=O)OC1C2CC3CC(C2)CC1C3 (some centres not stated)
135 | C[C@@H]1CCCC[C@H]1OC(=O)NC(C)(Cc1c[nH]c2ccccc12)C(=O)NCCc1ccccc1 (some centres not stated)
2.04 | CC1(C)[C@H]2CC[C@@]1(C)[C@@H](OC(=O)N[C@](C)(Cc1c[nH]c3ccccc13)C(=O)NC[C@H](NC(=O)CCC(=O)O)c1ccccc1)C2
2.19 | CC1(C)C2CCC1(C)[C@@H](OC(=O)N[C@](C)(Cc1c[nH]c3ccccc13)C(=O)NC[C@H](NC(=O)/C=C/C(=O)O)c1ccccc1)C2 (some centres not stated)
977 | O=C(O)CCC(=O)N[C@@H](CNC(=O)[C@H](Cc1c[nH]c2ccccc12)NC(=O)OC1C2CC3CC(C2)CC1C3)c1ccccc1 (some centres not stated)
166 | C[C@@](Cc1c[nH]c2ccccc12)(NC(=O)OC1C2CC3CC(C2)CC1C3)C(=O)N[C@H](CNC(=O)CCC(=O)O)Cc1ccccc1 (some centres not stated)
355 | O=C(O)CCC(=O)NC(CNC(=O)[C@@H](Cc1c[nH]c2ccccc12)NC(=O)OC1C2CC3CC(C2)CC1C3)c1ccccc1 (some centres not stated)
15.1 | C[C@@H]1CCCC[C@H]1OC(=O)N[C@](C)(Cc1c[nH]c2ccccc12)C(=O)N[C@H](CO)Cc1ccccc1 (stereo in doubt; 11)
138 | O=C(O)C[C@@H](Cc1ccccc1)NC(=O)[C@@H](Cc1c[nH]c2ccccc12)NC(=O)OC1C2CC3CC(C2)CC1C3 (some centres not stated)
302 | CC1(C)C2CCC1(C)[C@@H](OC(=O)N[C@H](Cc1c[nH]c3ccccc13)C(=O)NC[C@H](NC(=O)CCC(=O)O)c1ccccc1)C2 (some centres not stated)
398 | CC1(C)C2CCC1(C)[C@@H](OC(=O)N[C@@H](Cc1c[nH]c3ccccc13)C(=O)NC[C@H](NC(=O)CCC(=O)O)c1ccccc1)C2 (some centres not stated)
81.3 | CC1(C)C2CCC1(C)[C@@H](OC(=O)N[C@H](Cc1c[nH]c3ccccc13)C(=O)NC[C@H](NC(=O)/C=C/C(=O)O)c1ccccc1)C2 (some centres not stated)
2090 | O=C(N[C@H](Cc1c[nH]c2ccccc12)C(=O)N[C@H](CO)Cc1ccccc1)OC1C2CC3CC(C2)CC1C3 (stereo in doubt; 10)
1.15 | C[C@@H]1CCCC[C@H]1OC(=O)N[C@](C)(Cc1c[nH]c2ccccc12)C(=O)N[C@H](CNC(=O)/C=C/C(=O)O)Cc1ccccc1
15.5 | CC1(C)C2CCC1(C)C(OC(=O)N[C@](C)(Cc1c[nH]c3ccccc13)C(=O)N[C@H](CO)Cc1ccccc1)C2 (some centres not stated)
0.708 | C[C@](Cc1c[nH]c2ccccc12)(NC(=O)OC1C2CC3CC(C2)CC1C3)C(=O)N[C@H](CNC(=O)/C=C/C(=O)O)Cc1ccccc1 (some centres not stated)
126 | CC(Cc1c[nH]c2ccccc12)(NC(=O)O[C@H]1CC2CCC1(C)C2(C)C)C(=O)NCCc1ccccc1 (some centres not stated)
3.98 | C[C@](Cc1c[nH]c2ccccc12)(NC(=O)OC1C2CC3CC(C2)CC1C3)C(=O)N[C@H](CNC(=O)CCC(=O)O)Cc1ccccc1 (some centres not stated)
191 | CC(Cc1c[nH]c2ccccc12)(NC(=O)OC12CC3CC(CC(C3)C1)C2)C(=O)NCCc1ccccc1 (configuration not stated)
20.4 | C[C@](Cc1c[nH]c2ccccc12)(NC(=O)OC12CC3CC(CC(C3)C1)C2)C(=O)N[C@H](CO)Cc1ccccc1
813 | O=C(N[C@H](Cc1c[nH]c2ccccc12)C(=O)N[C@H](CO)Cc1ccccc1)OC1C2CC3CC(C2)CC1C3 (stereo in doubt; 9)
3.72 | C[C@@H]1CCCC[C@H]1OC(=O)N[C@](C)(Cc1c[nH]c2ccccc12)C(=O)NC[C@H](NC(=O)CCC(=O)O)c1ccccc1

Reference: ChEMBL document CHEMBL1125452, “Rationally designed "dipeptoid" analogues of CCK. A Free-Wilson/Fujita-Ban analysis of some alpha-methyltryptophan derivatives as CCK-B antagonists” (J Med Chem, 1992)
